# Measured values from PMC7023232, “Polymer Cancerostatics Containing Cell-Penetrating Peptides: Internalization Efficacy Depends on Peptide Type and Spacer Length” (Pharmaceutics, 2020).
# Like-named read-outs stand apart in the source and are kept apart here.
# Experiments:
# Assay type in all cases: cell-based, human
# HeLa cells [1] = assay: Alamar Blue cell viability (cytotoxicity)
# Method: Cytotoxicity of polymer–peptide conjugates was determined using Alamar Blue® cell viability reagent (Thermo Fischer Scientific, Czech Republic) in HeLa cells according to the manufacturer’s protocol. Cells were seeded into 96-well plates in 100 μL of DMEM 24 h prior to experiment at a density of 5 × 10^3 cells per well. […] […] Then the medium was replaced by 90 μL of fresh medium with 10 μL of Alamar Blue® reagent and incubated for the next 4 h in 5% CO2 at 37 °C. […] The fluorescence intensity was measured using a Synergy Neo plate reader (Bio-Tek, Prague, Czech Republic) with excitation at 550 nm and emission at 590 nm. Non-treated cells were used as a negative control and free pirarubicin as a positive control. All samples were measured in triplicate in three independent experiments. The half maximal inhibitory concentration value IC50 was expressed as a concentration of CPP ± SD and pirarubicin ± SD, respectively. […] In the case of drug bearing polymer conjugates, the concentration varied from 43.2 nM to 44.3 μM of pirarubicin.
# Results were plotted as average ± standard deviation (SD). All statistical analysis was performed using GraphPad Prism 5.03. An ANOVA test was followed by Dunnett’s or Turkey’s test. A value of *** p < 0.001, ** p < 0.01, and * p < 0.05 was considered statistically significant. All IC50 (the concentrations of the CPP or drug reducing the cell viability to one half) values were obtained from calculations corresponding to fitting by logistic S-curves.
# HeLa cells [2] = assay: Flow cytometry of cellular uptake of fluorescently labeled polymer–peptide conjugates (median fluorescence intensity relative to control polymer REF); conditions: for internalization efficiency compared with the control polymer: HeLa cells, flow cytometry, concentration and temperature not stated at this place (abstract); for cell penetration compared with control polymer (in words): any of the concentrations used, at 4 °C and at 37 °C; for uptake relative to control polymer at the highest concentration: highest concentration used
# Method: The HeLa cell line (LGC Standards, Poland) was cultured in Dulbecco’s modified Eagle medium (DMEM) supplemented with 100 U of penicillin, 100 μg⋅mL^−1 streptomycin, and 10% fetal bovine serum in 25 cm^2 flasks. Cells were cultivated in a humidified incubator at 37 °C with 5% CO2. The chemicals were purchased from Life Technologies/Gibco, Prague, Czech Republic.
# The HeLa cell line was incubated with fluorescently labeled polymer–peptide conjugates for 1 h at 4 °C and 37 °C. For measurement at 4 °C, HeLa cells were harvested with 0.05% trypsin (Thermo Fisher Scientific, Czech Republic) at 37 °C for 3 min. Subsequently, cells were washed with 0.5% bovine serum albumin in phosphate buffered saline (0.01 M) (BSA/PBS), pre-cooled for 15 min and incubated with fluorescently labeled polymer–peptide conjugates in the dark for 1 h at 4 °C. After incubation, the cells were washed once with BSA/PBS, centrifuged at 1500 rpm for 3 min and re-suspended in 1 μM Sytox Blue Dead Cell Stain (Thermo Fisher Scientific, Czech Republic) to distinguish live and dead cells. For measurement at 37 °C, HeLa cells were seeded 24 h prior to the experiment on 24-well plates at a density 1.5 × 10^5 cells per well. Polymer–peptide conjugates were then added together with fresh DMEM and incubated at 37 °C in 5% CO2 and humidified atmosphere. Subsequently, cells were washed with BSA/PBS, harvested with 0.05% trypsin at 37 °C for 3 min, transferred to tubes, centrifuged at 1500 rpm for 3 min, and re-suspended in PBS/BSA containing 1 μM Sytox Blue Dead Cell Stain (Thermo Fisher Scientific, Czech Republic). All measurements were acquired using a FACSVerse™ flow cytometer (Becton Dickinson Czechia, s.r.o., Prague, Czech Republic) and analyzed by FlowJo software version 10 (Tree Star Inc., Ashland, OR, USA); the median of fluorescence intensity was determined. The concentration of polymer conjugates was adjusted to the value corresponding to a final concentration of peptide 1000 μM. This stock solution was diluted with PBS to obtain all used concentrations. […] HeLa cells without a polymer were used as a negative control. All samples were measured in duplicates in two independent experiments.
# The uptake of the polymer–peptide conjugates incubated with the cells was measured using flow cytometry.
# HeLa cells [3] = assay: Laser scanning confocal microscopy of intracellular uptake and localization
# Method: Laser scanning confocal microscopy (LSCM) was used to visualize the intracellular uptake of selected polymer conjugates. HeLa cells were seeded 24 h prior to an experiment (1.5 × 10^5 cells per well) to confocal chambers (1 μ-dishes providing a 35 mm^2 growth area with 500 μL cell culture medium) with four chambers in a 20 mm micro-well and a #1 cover glass (0.13–0.16 mm) (Bio-Port Europe, Prague, Czech Republic). Medium was replaced by fresh medium with dissolved polymer–peptide conjugates and added to confocal chamber and incubated either at 4 °C or at 37 °C for 1 h. After the incubation time, cells were washed twice with PBS and measured by confocal microscopy. Hoechst 33342 was used for visualization of cell nuclei (5 μg·mL^−1, Thermo Fischer Scientific, Czech Republic) and cell membranes were stained with CellMask™ Green (1 μg⋅mL^−1, Thermo Fisher Scientific, Czech Republic) for 1 h before imaging at 4 °C or 10 min at 37 °C. Observation of samples was performed by Olympus IX83 coupled with FV10-ASW software (Olympus, Prague, Czech Republic). The samples were scanned using the 60× oil objective Plan ApoN (1.42 numerical apertures). Dy633-labeled polymers were excited at 637 nm and emitted light was detected through a 650–750 nm filter. For the detection of Hoechst 33342 dye-stained nuclei, an excitation wavelength of 405 nm was used and emitted light was detected through a 420–500 nm filter. CellMask Green-stained cell membranes were excited at 488 nm and the emitted light was detected through a 500–600 nm filter. All samples were measured in duplicate in two independent experiments.
# A confocal microscopy study was performed to support and extend the data obtained by flow cytometry. Confocal microscopy imaging was used to map localization of CPP conjugates. The polymer conjugates with the highest cell penetration activity, TAT12 and PEN12, were selected for the confocal microscopy experiments. Conjugate REF was used as a control. The polymers were incubated with HeLa cells for 1, 2, or 4 h at 4 or 37 °C.
# [4] = 24 h incubation, Alamar Blue, Dy633-labeled conjugates, mean ± SD, triplicate in three independent experiments, for REF virtual CPP concentration of the same weight concentration, read-out: IC50 (concentration of the CPP reducing the cell viability to one half)
# [5] = 4 °C (cells precooled 15 min), 50 μM of CPP, up to 4 h
# [6] = 37 °C, 50 μM of CPP, 1, 2 or 4 h
compound,measurement,setting,value
GRKKRRQRRR [TAT4],IC50,HeLa cells [1]; [4],95.3 ± 2.6 µM
same,internalization efficiency compared with the control polymer,HeLa cells [2],about 40 times
same,cell penetration level compared with REF,"HeLa cells [2]; HeLa, 4 °C, 1 h, 1 μM of CPP",seven
same,enhanced cellular uptake (relative fluorescence intensity) compared to REF,"HeLa cells [2]; HeLa, 37 °C, 1 h, 0.1 μM of CPP",14 times
RRMKWKK [PEN12],cellular localization / internalization by confocal microscopy (in words),HeLa cells [3]; [5],much less pronounced at 4 °C
same,cellular localization / internalization by confocal microscopy (in words),HeLa cells [3]; [6],lower cell internalization compared with TAT12
same,penetration efficacy relative to shorter analog PEN4,"HeLa cells [2]; HeLa, 4 °C, 1 h, 25 μM of CPP",two
RRMKWKK [PEN4],IC50,HeLa cells [1]; [4],82.9 ± 4.8 µM
same,internalization efficiency compared with the control polymer,HeLa cells [2],~15 times
same,effect of tetra(ethylene glycol) spacer on penetration compared with spacer-free PEN0 (in words),"HeLa cells [2]; HeLa, 4 °C, 1 h",not long enough to improve the penetration
same,uptake compared with TAT4 (in words),"HeLa cells [2]; HeLa, 4 °C, 1 h, 1 and 10 μM of CPP",slightly outperformed TAT4
same,concentration dependence of relative uptake (in words),"HeLa cells [2]; HeLa, 4 °C, 1 h, 25 and 50 μM of CPP",did not exhibit any more improvement
same,"relative increase of fluorescence intensity compared to REF, versus TAT4 (in words)","HeLa cells [2]; HeLa, 37 °C, 1 h, all measured concentrations",lower than in the case of TAT4
"GRKKRRQRRR [P-T12-Pir, HPMA copolymer bearing pirarubicin via GFLG and TAT via dodeca(ethylene glycol) spacer]",IC50 lower compared with P-Pir conjugate without any CPP,HeLa cells [1]; 24 h incubation,more than two
same,IC50 (concentration of the Pir reducing the cell viability to one half),"HeLa cells [1]; 24 h incubation, Alamar Blue, expressed as pirarubicin, mean ± SD, triplicate in three independent experiments",18.3 ± 6.2 µg/mL
same,IC50,"HeLa cells [1]; 24 h incubation, read-out: concentration of CPP present on the conjugate at IC50 value",~20.7 µM
same,cytotoxicity (IC50 as pirarubicin) after longer incubation time,"HeLa cells [1]; 72 h incubation, Alamar Blue",11.1 ± 1.6 µg/mL
"COc1cccc2c1C(=O)c1c(O)c3c(c(O)c1C2=O)C[C@@](O)(C(=O)CO)C[C@@H]3O[C@H]1C[C@H](N)[C@H](O[C@@H]2CCCCO2)[C@H](C)O1 [Pir, Pirarubicin, reference compound]",IC50,"HeLa cells [1]; Homo sapiens, 24 h incubation, Alamar Blue, expressed as pirarubicin, mean ± SD, triplicate in three independent experiments, read-out: IC50 (concentration of the Pir reducing the cell viability to one half)",1.03 ± 0.3 µg/mL
VPMLK [VP4],cell penetration compared with control polymer (in words),"HeLa cells [2]; HeLa, 1 h",do not penetrate cells better than the control polymer
GRKKRRQRRR [TAT12],cellular localization / internalization by confocal microscopy (in words),HeLa cells [3]; [5],partially localized even in the cytosol
same,cellular localization / internalization by confocal microscopy (in words),HeLa cells [3]; [6],localized in cytosol already after 1 h
same,presence of the polymer in the cell nuclei (in words),HeLa cells [3]; [6],negligible
same,penetration efficacy relative to spacer-free conjugate TAT0,"HeLa cells [2]; HeLa, 4 °C, 1 h, 50 μM of CPP",2.8 times
RYIRS [RY4],cell penetration compared with control polymer (in words),"HeLa cells [2]; HeLa, 1 h",do not penetrate cells better than the control polymer
YARAAARQARA [YA4],cell penetration compared with control polymer (in words),"HeLa cells [2]; HeLa, 1 h",do not penetrate cells better than the control polymer
PFVYLI [PF4],increase in uptake relative to REF,"HeLa cells [2]; HeLa, 4 °C (precooled cells), 1 h, median fluorescence intensity ratio to REF",up to 2 times
same,uptake relative to control polymer at the highest concentration,"HeLa cells [2]; HeLa, 4 °C, 1 h",1.8 times
same,uptake relative to control polymer at the highest concentration,"HeLa cells [2]; HeLa, 37 °C, 1 h",1.8 times
